How the values were obtained:
NK-YS (IL-2 2.5 ng/mL) [1] = experiment: drug sensitivity score (DSS) (DSS units); higher = more sensitive; extreme values may be limits of the assay; settings: 72 h
[2] = test system: normal primary NK cells, pool 2 (3 donors) (IL-2 2.5 ng/mL); experiment: as above; settings: 72 h
[3] = test system: normal primary NK cells, pool 3 (3 donors) (IL-2 2.5 ng/mL); experiment: as above; settings: 72 h
KAI3 (IL-2 2.5 ng/mL) [4] = experiment: as above; settings: 72 h
YT (IL-2 2.5 ng/mL) [5] = experiment: as above; settings: 72 h
NKL (IL-2 2.5 ng/mL) [6] = experiment: as above; settings: 72 h
NK-92 (IL-2 2.5 ng/mL) [7] = experiment: as above; settings: 72 h
SNK-6 (IL-2 2.5 ng/mL) [8] = experiment: as above; settings: 72 h
IMC-1 (IL-2 20 ng/mL) [9] = experiment: as above; settings: 72 h
DERL-7 (IL-2 2.5 ng/mL) [10] = experiment: as above; settings: 72 h
KHYG-1 (IL-2 2.5 ng/mL) [11] = experiment: as above; settings: 72 h
[12] = test system: normal primary NK cells, pool 1 (3 donors) (IL-2 2.5 ng/mL); experiment: as above; settings: 72 h
[13] = test system: normal primary NK cells, pool 1 (3 donors), resting (IL-2 0 ng/mL); experiment: as above; settings: 72 h
NK-YS (IL-2 2.5 ng/mL) [14] = experiment: percent inhibition of viability; higher = more inhibition; settings: 72 h
[15] = test system: normal primary NK cells, pool 2 (3 donors) (IL-2 2.5 ng/mL); experiment: as above; settings: 72 h
[16] = test system: normal primary NK cells, pool 3 (3 donors) (IL-2 2.5 ng/mL); experiment: as above; settings: 72 h
KAI3 (IL-2 2.5 ng/mL) [17] = experiment: as above; settings: 72 h
YT (IL-2 2.5 ng/mL) [18] = experiment: as above; settings: 72 h
NKL (IL-2 2.5 ng/mL) [19] = experiment: as above; settings: 72 h
NK-92 (IL-2 2.5 ng/mL) [20] = experiment: as above; settings: 72 h
SNK-6 (IL-2 2.5 ng/mL) [21] = experiment: as above; settings: 72 h
IMC-1 (IL-2 20 ng/mL) [22] = experiment: as above; settings: 72 h
DERL-7 (IL-2 2.5 ng/mL) [23] = experiment: as above; settings: 72 h
KHYG-1 (IL-2 2.5 ng/mL) [24] = experiment: as above; settings: 72 h
[25] = test system: normal primary NK cells, pool 1 (3 donors) (IL-2 2.5 ng/mL); experiment: as above; settings: 72 h
[26] = test system: normal primary NK cells, pool 1 (3 donors), resting (IL-2 0 ng/mL); experiment: as above; settings: 72 h
[27] = test system: normal NK cells expanded with K562-aAPC; experiment: drug sensitivity score (DSS) (DSS units); higher = more sensitive; extreme values may be limits of the assay; settings: 72 h; IL-2 2.5 ng/mL
Description: (§1)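 Drug sensitivity and resistance testing on K562-aAPC-expanded normal NK cells: 5 concentrations (10-fold steps over a 10,000-fold range), 72 h at 37 °C, viability by CellTiter-Glo normalised to DMSO and benzethonium chloride controls; DSS from the fitted curve.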

[28] = test system: normal NK cells expanded with K562-aAPC; experiment: percent inhibition of viability; higher = more inhibition; settings: 72 h, IL-2 2.5 ng/mL
Description: as §1

CCN(CC)CCNC(=O)c1c(C)[nH]c(/C=C2\C(=O)Nc3ccc(F)cc32)c1C [Sunitinib] (max concentration tested 1000 nM)
Settings	drug sensitivity score
DERL-7 (IL-2 2.5 ng/mL) [10]	0
IMC-1 (IL-2 20 ng/mL) [9]	0
KAI3 (IL-2 2.5 ng/mL) [4]	0.06
KHYG-1 (IL-2 2.5 ng/mL) [11]	0
NK-92 (IL-2 2.5 ng/mL) [7]	0
NK-YS (IL-2 2.5 ng/mL) [1]	0.4
NKL (IL-2 2.5 ng/mL) [6]	0
SNK-6 (IL-2 2.5 ng/mL) [8]	0
YT (IL-2 2.5 ng/mL) [5]	0
[2]	0
[3]	0
[12]	0.13
[13]	0.08
[27]	0

percent inhibition of viability [%]
Settings	0.1 nM	1 nM	10 nM	100 nM	1000 nM
DERL-7 (IL-2 2.5 ng/mL) [23]	-3.26	-7.9	-4.27	2.22	8.72
IMC-1 (IL-2 20 ng/mL) [22]	-2.84	-1.04	-2.36	-9.74	-11.7
KAI3 (IL-2 2.5 ng/mL) [17]	-6.44	-3.5	-1.64	-2.65	13.1
KHYG-1 (IL-2 2.5 ng/mL) [24]	-2.13	-0.89	-1.78	-2.5	-1.47
NK-92 (IL-2 2.5 ng/mL) [20]	-1.8	-5.15	-7.66	-13.8	-16.3
NK-YS (IL-2 2.5 ng/mL) [14]	-7.84	-1.57	-0.53	-5.09	20
NKL (IL-2 2.5 ng/mL) [19]	-10.3	-18.8	-13.7	-21.1	-19
SNK-6 (IL-2 2.5 ng/mL) [21]	5.7	4.75	3.71	-18.1	-44.5
YT (IL-2 2.5 ng/mL) [18]	-1.95	0.38	0.07	-2.92	-1.42
[15]	-6.76	-0.63	-6.25	-4.61	11.7
[16]	-5.22	-2.41	-6.25	-3.39	0.3
[25]	-9.12	-5.49	0.84	2.57	11.7
[26]	-1.26	-12.4	6.63	10.2	8.42
[28]	-1.15	-8.6	-7.99	-3.78	8.28

Cn1ncnc1[C@H]1c2n[nH]c(=O)c3cc(F)cc(c23)N[C@@H]1c1ccc(F)cc1 [Talazoparib] (max concentration tested 1000 nM)
Settings	drug sensitivity score
DERL-7 (IL-2 2.5 ng/mL) [10]	5.22
IMC-1 (IL-2 20 ng/mL) [9]	7.06
KAI3 (IL-2 2.5 ng/mL) [4]	12.7
KHYG-1 (IL-2 2.5 ng/mL) [11]	7.93
NK-92 (IL-2 2.5 ng/mL) [7]	12
NK-YS (IL-2 2.5 ng/mL) [1]	18.4
NKL (IL-2 2.5 ng/mL) [6]	27.7
SNK-6 (IL-2 2.5 ng/mL) [8]	8.8
YT (IL-2 2.5 ng/mL) [5]	0
[2]	0.86
[3]	1.31
[12]	0
[13]	0
[27]	4.21

percent inhibition of viability [%]
Settings	0.1 nM	1 nM	10 nM	100 nM	1000 nM
DERL-7 (IL-2 2.5 ng/mL) [23]	4.61	7.22	13.7	21.3	37.8
IMC-1 (IL-2 20 ng/mL) [22]	-4.58	-1.47	11.2	18.6	78.1
KAI3 (IL-2 2.5 ng/mL) [17]	3.2	10.3	25.1	48.3	74.7
KHYG-1 (IL-2 2.5 ng/mL) [24]	0.2	-0.57	14.9	31.4	71.2
NK-92 (IL-2 2.5 ng/mL) [20]	15.4	8.78	27.8	36.7	87.8
NK-YS (IL-2 2.5 ng/mL) [14]	-2.27	-0.36	27.9	81.3	96.2
NKL (IL-2 2.5 ng/mL) [19]	-2.21	28.1	72	84.1	88.6
SNK-6 (IL-2 2.5 ng/mL) [21]	1.83	6.37	16.4	33.1	90.8
YT (IL-2 2.5 ng/mL) [18]	-2.25	0.5	0.86	-5.82	-1.36
[15]	-10.4	6.14	1.12	1.32	21.5
[16]	-7.78	-0.35	2.46	5.72	21.3
[25]	7.55	-5.65	4.49	-2.17	-1.39
[26]	10.7	-5.43	-1.52	-18.5	4.03
[28]	2.07	3.56	9.75	17.4	45.1

CC/C(=C(\c1ccccc1)c1ccc(OCCN(C)C)cc1)c1ccccc1 [Tamoxifen] (max concentration tested 10000 nM)
Settings	drug sensitivity score
DERL-7 (IL-2 2.5 ng/mL) [10]	5.15
IMC-1 (IL-2 20 ng/mL) [9]	0.37
KAI3 (IL-2 2.5 ng/mL) [4]	6.93
KHYG-1 (IL-2 2.5 ng/mL) [11]	4.33
NK-92 (IL-2 2.5 ng/mL) [7]	4.46
NK-YS (IL-2 2.5 ng/mL) [1]	1.92
NKL (IL-2 2.5 ng/mL) [6]	7.22
SNK-6 (IL-2 2.5 ng/mL) [8]	2.32
YT (IL-2 2.5 ng/mL) [5]	3.65
[2]	4.53
[3]	1.21
[12]	7.04
[13]	8.03
[27]	2.77

percent inhibition of viability [%]
Settings	1 nM	10 nM	100 nM	1000 nM	10000 nM
DERL-7 (IL-2 2.5 ng/mL) [23]	1.51	5.51	6.94	12.4	58.1
IMC-1 (IL-2 20 ng/mL) [22]	2.26	1.26	1.8	5.99	14.7
KAI3 (IL-2 2.5 ng/mL) [17]	-0.42	-4.09	3.87	8.65	100
KHYG-1 (IL-2 2.5 ng/mL) [24]	-5.57	-6.4	1.61	13.7	44.6
NK-92 (IL-2 2.5 ng/mL) [20]	-11.7	-1.59	-5.3	2.31	75.2
NK-YS (IL-2 2.5 ng/mL) [14]	-7.45	-5.92	-3.79	2.63	33.2
NKL (IL-2 2.5 ng/mL) [19]	-6.42	-9.93	0.08	21.2	73.4
SNK-6 (IL-2 2.5 ng/mL) [21]	-6.58	-17.5	-11.6	-6.09	51.8
YT (IL-2 2.5 ng/mL) [18]	-0.53	-2.4	0.91	3.43	58.4
[15]	-3.62	2.15	-3.66	4.91	68.8
[16]	-1.03	0.09	5.67	-1.54	30.3
[25]	1.45	8.11	7.67	12.3	89.6
[26]	2.3	22	15.1	20.6	90.1
[28]	-7.94	-6.09	-3.11	5.82	37.2

Source: the supplement of paper PMC5908809
